# US11465981B2, “Heterocyclic compounds as immunomodulators” (Incyte Corporation, priority 2016, dated 2022)
# pIC50: −log10 of the molar value.
# Biological target: PD-1/PD-L1 protein/protein interaction (Homo sapiens (Human), UniProt Q9NZQ7)
# Assay: PD-1/PD-L1 Homogeneous Time-Resolved Fluorescence (HTRF) Binding Assay
# Conditions: recombinant human PD-1 (Fc tag) 3 nM, human PD-L1 (His-tag) 10 nM, 25° C., PBS pH 7.4
# Procedure: Example A. PD-1/PD-L1 Homogeneous Time-Resolved Fluorescence (HTRF) Binding Assay
# The assays were conducted in a standard black 384-well polystyrene plate with a final volume of 20 μL. Inhibitors were first serially diluted in DMSO and then added to the plate wells before the addition of other reaction components. The final concentration of DMSO in the assay was 1%. The assays were carried out at 25° C. in the PBS buffer (pH 7.4) with 0.05% Tween-20 and 0.1% BSA. Recombinant human PD-L1 protein (19-238) with a His-tag at the C-terminus was purchased from AcroBiosystems (PD1-H5229). Recombinant human PD-1 protein (25-167) with Fc tag at the C-terminus was also purchased from AcroBiosystems (PD1-H5257). PD-L1 and PD-1 proteins were diluted in the assay buffer and 10 μL was added to the plate well. Plates were centrifuged and proteins were preincubated with inhibitors for 40 minutes. The incubation was followed by the addition of 10 μL of HTRF detection buffer supplemented with Europium cryptate-labeled anti-human IgG (PerkinElmer-AD0212) specific for Fc and anti-His antibody conjugated to SureLight®-Allophycocyanin (APC, PerkinElmer-AD0059H). After centrifugation, the plate was incubated at 25° C. for 60 min. before reading on a PHERAstar FS plate reader (665 nm/620 nm ratio). Final concentrations in the assay were […], 10 nM PD-L1, 1 nM europium anti-human IgG and 20 nM anti-His-Allophycocyanin. IC50 determination was performed by fitting the curve of percent control activity versus the log of the inhibitor concentration using the GraphPad Prism 5.0 software.
# Sequence of PD-1/PD-L1 protein/protein interaction (Q9NZQ7 19-238): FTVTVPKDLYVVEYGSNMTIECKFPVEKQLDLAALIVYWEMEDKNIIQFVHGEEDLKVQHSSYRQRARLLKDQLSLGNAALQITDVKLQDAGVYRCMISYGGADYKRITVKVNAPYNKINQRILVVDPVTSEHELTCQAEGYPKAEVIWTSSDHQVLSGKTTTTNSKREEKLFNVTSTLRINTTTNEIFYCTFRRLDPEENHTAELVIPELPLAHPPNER
row,Compound,pIC50
1,"Cc1c(NC(=O)c2ccc(CN3CCCC[C@H]3C(=O)O)cn2)cccc1-c1cccc(NC(=O)c2ccc(CNCCO)cn2)c1Cl [Example 7, (S)-1-((6-(2′-chloro-3′-(5-((2-hydroxyethylamino)methyl)picolinamido)-2-methylbiphenyl-3-ylcarbamoyl)pyridin-3-yl)methyl)piperidine-2-carboxylic Acid]",≥ 8.00
2,"Cc1c(NC(=O)c2ccc(CN3CCN(C)C3=O)cn2)cccc1-c1cccc(NC(=O)c2ccc(CN3CC[C@@H](O)C3)cn2)c1Cl [Example 4, (R)—N-(2-chloro-2′-methyl-3′-(5-((3-methyl-2-oxoimidazolidin-1-yl)methyl)picolinamido)biphenyl-3-yl)-5-((3-hydroxypyrrolidin-1-yl)methyl)picolinamide]",≥ 8.00
3,"Cc1c(NC(=O)c2ccc(CN3CCN(C)C3=O)cn2)cccc1-c1cccc(NC(=O)c2ccc(CNCCO)cn2)c1Cl [Example 3, N-(2-chloro-2′-methyl-3′-(5-((3-methyl-2-oxoimidazolidin-1-yl)methyl)picolinamido)biphenyl-3-yl)-5-((2-hydroxyethylamino)methyl)picolinamide]",≥ 8.00
4,"Cc1c(NC(=O)c2ccc(CN3CCCC[C@H]3C(=O)O)cn2)cccc1-c1cccc(NC(=O)c2ccc(CN3CCCC[C@H]3C(=O)O)cn2)c1Cl [Example 2, (2S,2'S)-1,1′-(6,6′-(2-chloro-2′-methylbiphenyl-3,3′-diyl)bis(azanediyl)bis(oxomethylene)bis(pyridine-6,3-diyl))bis(methylene)dipiperidine-2-carboxylic Acid]",≥ 8.00
5,"Cc1c(NC(=O)c2ccc(CN3CC(C(=O)O)C3)cn2)cccc1-c1cccc(NC(=O)c2ccc(CN3CC[C@@H](O)C3)cn2)c1Cl [Example 10, (R)-1-((6-(2′-chloro-3′-(5-((3-hydroxypyrrolidin-1-yl)methyl)picolinamido)-2-methylbiphenyl-3-ylcarbamoyl)pyridin-3-yl)methyl)azetidine-3-carboxylic Acid]",≥ 8.00
6,"Cc1c(NC(=O)c2ccc(CN3CCC(C(=O)O)CC3)cn2)cccc1-c1cccc(NC(=O)c2ccc(CN3CC[C@@H](O)C3)cn2)c1Cl [Example 9, (R)-1-((6-(2′-chloro-3′-(5-((3-hydroxypyrrolidin-1-yl)methyl)picolinamido)-2-methylbiphenyl-3-ylcarbamoyl)pyridin-3-yl)methyl)piperidine-4-carboxylic Acid]",≥ 8.00
7,"O=C(Nc1cccc(-c2cccc(NC(=O)c3nc4c(s3)CNCC4)c2F)c1Cl)c1ccc(CN2CCCC[C@H]2C(=O)O)cn1 [Example 11, (S)-1-((6-((2-chloro-2′-fluoro-3′-(4,5,6,7-tetrahydrothiazolo[5,4-c]pyridine-2-carboxamido)-[1,1′-biphenyl]-3-yl)carbamoyl)pyridin-3-yl)methyl)piperidine-2-carboxylic Acid]",≥ 8.00
8,"Cc1c(NC(=O)c2ccc(CNCCO)cn2)cccc1-c1cccc(NC(=O)c2ccc(CNCCO)cn2)c1Cl [Example 1, N,N′-(2-chloro-2′-methylbiphenyl-3,3′-diyl)bis(5-((2-hydroxyethylamino)methyl)picolinamide)]",≥ 8.00
9,"Cc1c(NC(=O)c2ccc(CN3CC[C@H](C(=O)O)C3)cn2)cccc1-c1cccc(NC(=O)c2ccc(CN3CC[C@@H](O)C3)cn2)c1Cl [Example 8, (S)-1-((6-(2′-chloro-3′-(5-(((R)-3-hydroxypyrrolidin-1-yl)methyl)picolinamido)-2-methylbiphenyl-3-ylcarbamoyl)pyridin-3-yl)methyl)pyrrolidine-3-carboxylic Acid]",≥ 8.00
10,"COc1ccnc(C(=O)Nc2cccc(-c3cccc(NC(=O)c4cc(C)c(CN5CCCC[C@H]5C(=O)O)cn4)c3Cl)c2C)c1 [Example 13, (S)-1-((6-((2-chloro-3′-(4-methoxypicolinamido)-2′-methyl-[1,1′-biphenyl]-3-yl)carbamoyl)-4-methylpyridin-3-yl)methyl)piperidine-2-carboxylic Acid]",≥ 8.00
11,"Cc1cc(C(=O)Nc2cccc(-c3cccc(NC(=O)c4ccc(CN5CCCC5)cn4)c3Cl)c2C)ncc1CN1CCCC[C@H]1C(=O)O [Example 12, (S)-1-((6-((2′-chloro-2-methyl-3′-(5-(pyrrolidin-1-ylmethyl)picolinamido)-[1,1′-biphenyl]-3-yl)carbamoyl)-4-methylpyridin-3-yl)methyl)piperidine-2-carboxylic acid]",≥ 8.00
12,"Cc1c(NC(=O)c2ccc(CN3CCOC3=O)cn2)cccc1-c1cccc(NC(=O)c2ccc(CN3CC[C@@H](O)C3)cn2)c1Cl [Example 6, (R)—N-(2-chloro-2′-methyl-3′-(5-((2-oxooxazolidin-3-yl)methyl)picolinamido)biphenyl-3-yl)-5-((3-hydroxypyrrolidin-1-yl)methyl)picolinamide]",≥ 8.00
13,"Cc1c(NC(=O)c2ccc(CN3CCOC3=O)cn2)cccc1-c1cccc(NC(=O)c2ccc(CNCCO)cn2)c1Cl [Example 5, N-(2-chloro-2′-methyl-3′-(5-((2-oxooxazolidin-3-yl)methyl)picolinamido)biphenyl-3-yl)-5-((2-hydroxyethylamino)methyl)picolinamide]",≥ 8.00
